Assay results from patent publication US8410178B2, “CIS 3,4-dihydroxy-2-(3-methylbutanoyl)-5-(3-methylbutyl)-4-(4-methylpentanoyl)cyclopent-2-en-1-derivatives, substantially enantiomerically pure compositions and methods” (KinDex Therapeutics, LLC, priority 2010, dated 2013).

What was measured:
[1] = tested on: rheumatoid arthritis synovial fibroblasts (RASF); assay: IL-1β-mediated inflammatory factors in RASFs; assay type: cell-based, Human; settings: IL-1β-induced, 50, 25, 12.5, and 6.25 μM
Description: The anti-inflammatory effect of (+)-KDT501 was evaluated in rheumatoid arthritis synovial fibroblasts (RASF).
Human RASF cells (Asterand, Detroit, Mich.) were cultured and maintained in DMEM/F12 (1:1) medium in the presence of 10% fetal bovine serum. Cells were subcultured in 24-well plates at a density of 1×10^4 cells per well and allowed to reach 70-80% confluence in two days. Confluent cells in serum-free medium at a final concentration of 0.1% DMSO were incubated for one hour with (+)-KDT501 at varying concentrations (50, 25, 12.5, and 6.25 μM), then stimulated with […] (10 ng/ml) for 20-24 hours. MMP-13 levels in the medium were measured using an ELISA kit (GE Healthcare, Piscataway, N.J.), and PGE2 levels were measured using an Immuno Assay Kit (Assay Designs, Ann Arbor, Mich.).

PPARα = target: T1, PPARα (Homo sapiens, UniProt Q07869); assay: PPARα luciferase reporter assay; assay type: cell-based; settings: reporter cells, 20 hours
T1 sequence (Q07869 1-468): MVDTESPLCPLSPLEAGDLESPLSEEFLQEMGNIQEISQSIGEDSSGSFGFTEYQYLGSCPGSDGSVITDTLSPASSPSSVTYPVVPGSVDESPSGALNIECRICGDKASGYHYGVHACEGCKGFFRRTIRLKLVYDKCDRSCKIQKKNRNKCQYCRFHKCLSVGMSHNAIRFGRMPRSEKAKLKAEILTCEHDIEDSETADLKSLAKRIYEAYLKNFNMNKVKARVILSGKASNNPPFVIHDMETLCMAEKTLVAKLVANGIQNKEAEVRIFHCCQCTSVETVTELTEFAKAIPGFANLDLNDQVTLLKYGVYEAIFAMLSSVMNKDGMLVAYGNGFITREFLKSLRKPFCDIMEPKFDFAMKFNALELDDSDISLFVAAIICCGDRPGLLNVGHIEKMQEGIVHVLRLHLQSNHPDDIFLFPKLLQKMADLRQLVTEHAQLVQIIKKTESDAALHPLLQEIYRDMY
Description: (§1) The functional effect of (+)-KDT501 on PPARα, PPARδ, and PPARγ activity was evaluated using a PPAR reporter assay (INDIGO Biosciences, PA). This assay utilizes non-human mammalian cells engineered to provide constitutive high level expression of PPARα, PPARδ, or PPARγ and containing a luciferase report gene specific to the appropriate PPAR. Following activation by agonist binding, PPAR induces expression of the luciferase reporter gene. Luciferase activity therefore provides a surrogate for measuring PPAR activity in agonist-treated cells.
(§2) Reporter cells were plated on a 96-well plate at 100 μL per well, and 100 μL of (+)-KDT501 at various final concentrations (25, 12.5, 6.25, 3.125, 1.56 and 0.78 μM) was added to each well. […] 0.1% DMSO was also used as a negative control for each assay. Plates are incubated for 20 hours in a humidified incubator at 37° C. and 5% CO2. After incubation, cell medium was discarded and the cells were treated with 100 μL of luciferase detection reagent for 15 minutes. Plates were analyzed using a luminometer (Victor2, Perkin Elmer). Average relative light unit (RLU) and standard deviation were analyzed using GraphPad Prism.

PPARγ = target: T2, PPARγ (Homo sapiens, UniProt P37231); assay: PPARγ luciferase reporter assay; assay type: cell-based
T2 sequence (P37231 1-505): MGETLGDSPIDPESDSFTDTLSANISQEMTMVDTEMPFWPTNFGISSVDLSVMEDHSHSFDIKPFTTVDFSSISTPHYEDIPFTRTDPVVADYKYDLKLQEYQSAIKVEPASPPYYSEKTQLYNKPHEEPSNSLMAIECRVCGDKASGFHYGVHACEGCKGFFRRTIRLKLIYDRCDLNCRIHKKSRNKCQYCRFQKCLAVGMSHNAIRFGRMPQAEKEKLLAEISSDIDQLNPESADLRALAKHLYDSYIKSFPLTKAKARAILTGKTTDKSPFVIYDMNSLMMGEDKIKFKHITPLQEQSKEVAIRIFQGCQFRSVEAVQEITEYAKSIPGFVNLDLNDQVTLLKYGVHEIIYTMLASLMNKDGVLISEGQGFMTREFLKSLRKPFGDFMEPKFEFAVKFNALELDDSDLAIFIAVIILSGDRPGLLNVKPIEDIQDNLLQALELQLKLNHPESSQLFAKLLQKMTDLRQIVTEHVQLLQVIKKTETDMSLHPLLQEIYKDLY
Description: as §1, §2
The PPAR activity assays were repeated as described above using both (+)-KDT501(12.5, 6.25, 3.125, 1.56, and 0.78 μM) and (−)-KDT501 (25, 12.5, 6.25, 3.125, 1.56, and 0.78 μM).

PPARδ = target: T3, PPARδ (Homo sapiens, UniProt Q03181); assay: PPARδ luciferase reporter assay; assay type: cell-based; settings: reporter cells, 20 hours
T3 sequence (Q03181 1-441): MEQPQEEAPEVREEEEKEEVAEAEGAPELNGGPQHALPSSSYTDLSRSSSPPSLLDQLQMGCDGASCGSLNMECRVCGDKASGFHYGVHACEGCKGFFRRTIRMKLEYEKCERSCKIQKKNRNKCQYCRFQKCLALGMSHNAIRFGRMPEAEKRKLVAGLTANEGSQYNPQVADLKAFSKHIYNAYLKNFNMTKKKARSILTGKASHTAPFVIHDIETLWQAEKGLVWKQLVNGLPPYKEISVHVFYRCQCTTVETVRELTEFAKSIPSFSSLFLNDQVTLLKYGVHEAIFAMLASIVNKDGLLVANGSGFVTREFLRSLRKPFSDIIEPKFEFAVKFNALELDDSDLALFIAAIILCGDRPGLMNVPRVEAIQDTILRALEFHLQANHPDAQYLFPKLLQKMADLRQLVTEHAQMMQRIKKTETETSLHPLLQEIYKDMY
Description: as §1, §2

With `CC(C)CCC(=O)[C@@]1(O)C(O)=C(C(=O)CC(C)C)C(=O)[C@@H]1CCC(C)C.[K]` [(+)-KDT501, (+)-(4S,5R)-3,4-dihydroxy-2-(3-methylbutanoyl)-5-(3-methylbutyl)-4-(4-methylpentanoyl)cyclopent-2-en-1-one potassium salt] the “expression of MMP-13” value [1] was “inhibited”, the “expression of PGE2” value [1] was “inhibited” and the PPARα activity (PPARα) was “little or no effect”. For the same compound, the “Fold difference in PPARγ reporter activity” value (“Fold difference” below) (PPARγ; (+)-KDT501 versus (−)-KDT501 at 3.13 μM) was 3.9, the “Fold difference” value (PPARγ; (+)-KDT501 versus (−)-KDT501 at 6.25 μM) was 6.7 and the “Fold difference” value (PPARγ; (+)-KDT501 versus (−)-KDT501 at 12.5 μM) was 6.8. For the same compound, the “Fold difference” value (PPARγ; (+)-KDT501 versus (−)-KDT501 at 25 μM) was 3.2, the “PPARγ reporter activity (RLU)” value (PPARγ; concentration of test compound 3.13 μM) was 2122 RLU and the “PPARγ reporter activity (RLU)” value (PPARγ; concentration of test compound 6.25 μM) was 6536 RLU. The “PPARγ reporter activity (RLU)” value (PPARγ; concentration of test compound 12.5 μM) was 16451 RLU, the “PPARγ reporter activity (RLU)” value (PPARγ; concentration of test compound 25 μM) was 13419 RLU and the PPARγ activity (PPARγ; reporter cells, 20 hours) was “increased PPARγ activity in a statistically significant manner”. For the same compound, the PPARδ activity (PPARδ) was “little or no effect”.
